Paper doi:10.1101/694877v2 (biorxiv, 2019)

Target: hAC2 (Homo sapiens, UniProt Q08462)
Assay: stimulation of adenylate cyclase activity, HTRF cAMP assay
Type: biochemical
Settings: 25 μM forskolin alone, no Gsα, no serum; 1 mM ATP, 2 mM MgCl2, pH 7.5

Sequence of hAC2 (Q08462 whole entry): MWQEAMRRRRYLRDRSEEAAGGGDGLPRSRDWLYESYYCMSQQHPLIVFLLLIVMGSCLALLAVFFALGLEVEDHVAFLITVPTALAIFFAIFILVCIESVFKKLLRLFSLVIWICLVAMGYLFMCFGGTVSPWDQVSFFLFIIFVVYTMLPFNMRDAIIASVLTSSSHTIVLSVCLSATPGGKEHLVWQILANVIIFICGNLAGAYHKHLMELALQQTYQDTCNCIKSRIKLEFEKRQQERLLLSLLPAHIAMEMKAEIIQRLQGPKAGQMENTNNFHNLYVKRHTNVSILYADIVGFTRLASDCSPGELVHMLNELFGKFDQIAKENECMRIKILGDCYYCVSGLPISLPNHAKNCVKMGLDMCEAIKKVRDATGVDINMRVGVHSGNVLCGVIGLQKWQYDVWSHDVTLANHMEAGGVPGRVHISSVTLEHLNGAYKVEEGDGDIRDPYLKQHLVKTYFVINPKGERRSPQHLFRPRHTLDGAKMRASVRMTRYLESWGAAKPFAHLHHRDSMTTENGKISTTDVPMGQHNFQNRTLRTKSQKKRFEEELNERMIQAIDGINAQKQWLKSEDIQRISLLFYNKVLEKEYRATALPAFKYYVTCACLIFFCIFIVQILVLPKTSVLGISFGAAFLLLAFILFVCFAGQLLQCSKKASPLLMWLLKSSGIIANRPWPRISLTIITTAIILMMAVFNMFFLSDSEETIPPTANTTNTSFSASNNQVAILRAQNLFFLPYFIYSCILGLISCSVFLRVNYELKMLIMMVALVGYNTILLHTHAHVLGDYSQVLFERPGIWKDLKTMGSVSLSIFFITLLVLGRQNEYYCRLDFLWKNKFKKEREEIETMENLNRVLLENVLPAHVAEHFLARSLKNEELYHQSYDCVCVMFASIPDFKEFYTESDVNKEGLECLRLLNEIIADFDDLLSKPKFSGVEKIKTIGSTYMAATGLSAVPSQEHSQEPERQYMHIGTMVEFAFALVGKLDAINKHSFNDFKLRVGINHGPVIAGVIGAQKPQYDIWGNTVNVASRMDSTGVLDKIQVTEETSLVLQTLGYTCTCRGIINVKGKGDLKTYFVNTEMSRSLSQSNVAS

- fold stimulation at 25 μM: ~ 2.4 fold
Structure (SMILES): C=C[C@@]1(C)CC(=O)[C@]2(O)[C@@]3(C)[C@@H](O)CCC(C)(C)[C@@H]3[C@H](O)[C@H](OC(C)=O)[C@@]2(C)O1 [forskolin]
